# In PubChem BioAssay (NCI):
#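 Protocol summary: plate cells (96-well), add compound at 5 concentrations, incubate 48 h, interpolate endpoints linearly. GI50 = concentration required for 50% inhibition of growth. At the TGI there is no net growth.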
# Legend:
# Test in all cases: inhibition of tumour cell growth, NCI panel, 48 h
# NCI-H460 lung = tested on: NCI-H460 lung
# NCI-H522 lung = tested on: NCI-H522 lung
# NCI/ADR-RES ovarian = tested on: NCI/ADR-RES ovarian
# OVCAR-3 ovarian = tested on: OVCAR-3 ovarian
# OVCAR-4 ovarian = tested on: OVCAR-4 ovarian
# OVCAR-5 ovarian = tested on: OVCAR-5 ovarian
# OVCAR-8 ovarian = tested on: OVCAR-8 ovarian
# PC-3 prostate = tested on: PC-3 prostate
# RPMI-8226 leukemia = tested on: RPMI-8226 leukemia
# RXF 393 renal = tested on: RXF 393 renal
# SF-268 CNS = tested on: SF-268 CNS
# SF-295 CNS = tested on: SF-295 CNS
# SF-539 CNS = tested on: SF-539 CNS
# SK-MEL-2 melanoma = tested on: SK-MEL-2 melanoma
# SK-MEL-28 melanoma = tested on: SK-MEL-28 melanoma
# SK-MEL-5 melanoma = tested on: SK-MEL-5 melanoma
# SK-OV-3 ovarian = tested on: SK-OV-3 ovarian
# SN12C renal = tested on: SN12C renal
# SNB-19 CNS = tested on: SNB-19 CNS
# SNB-75 CNS = tested on: SNB-75 CNS
# SR leukemia = tested on: SR leukemia
# SW-620 colon = tested on: SW-620 colon
# T-47D breast = tested on: T-47D breast
# TK-10 renal = tested on: TK-10 renal
# U251 CNS = tested on: U251 CNS
# UACC-257 melanoma = tested on: UACC-257 melanoma
# UACC-62 melanoma = tested on: UACC-62 melanoma
# UO-31 renal = tested on: UO-31 renal
structure (smiles),measurement,setting,value
COc1ccc(CN2CCCC(C(=O)c3ccc(C(F)(F)F)cc3)C2)c(O)c1 (stereo unspecified),GI50,NCI-H460 lung,26.7 µM
same,TGI,NCI-H460 lung,> 100 µM
same,GI50,NCI-H522 lung,19.3 µM
same,TGI,NCI-H522 lung,42.2 µM
same,GI50,NCI/ADR-RES ovarian,26.7 µM
same,TGI,NCI/ADR-RES ovarian,> 100 µM
same,GI50,OVCAR-3 ovarian,36.2 µM
same,TGI,OVCAR-3 ovarian,> 100 µM
same,GI50,OVCAR-4 ovarian,29.2 µM
same,TGI,OVCAR-4 ovarian,> 100 µM
same,GI50,OVCAR-5 ovarian,20.2 µM
same,TGI,OVCAR-5 ovarian,66.1 µM
same,GI50,OVCAR-8 ovarian,36.6 µM
same,TGI,OVCAR-8 ovarian,> 100 µM
same,GI50,PC-3 prostate,26.3 µM
same,TGI,PC-3 prostate,> 100 µM
same,GI50,RPMI-8226 leukemia,22 µM
same,TGI,RPMI-8226 leukemia,62.4 µM
same,GI50,RXF 393 renal,16.9 µM
same,TGI,RXF 393 renal,71.9 µM
same,GI50,SF-268 CNS,42.1 µM
same,TGI,SF-268 CNS,> 100 µM
same,GI50,SF-295 CNS,16.8 µM
same,TGI,SF-295 CNS,45.9 µM
same,GI50,SF-539 CNS,18.8 µM
same,TGI,SF-539 CNS,46.1 µM
same,GI50,SK-MEL-2 melanoma,27.5 µM
same,TGI,SK-MEL-2 melanoma,65.8 µM
same,GI50,SK-MEL-28 melanoma,17.1 µM
same,TGI,SK-MEL-28 melanoma,43.9 µM
same,GI50,SK-MEL-5 melanoma,15.9 µM
same,TGI,SK-MEL-5 melanoma,29.8 µM
same,GI50,SK-OV-3 ovarian,36.1 µM
same,TGI,SK-OV-3 ovarian,> 100 µM
same,GI50,SN12C renal,24.4 µM
same,TGI,SN12C renal,89.3 µM
same,GI50,SNB-19 CNS,26.3 µM
same,TGI,SNB-19 CNS,> 100 µM
same,GI50,SNB-75 CNS,18.4 µM
same,TGI,SNB-75 CNS,> 100 µM
same,GI50,SR leukemia,18 µM
same,TGI,SR leukemia,66.5 µM
same,GI50,SW-620 colon,18.6 µM
same,TGI,SW-620 colon,41.2 µM
same,GI50,T-47D breast,22.1 µM
same,TGI,T-47D breast,80.1 µM
same,GI50,TK-10 renal,31.3 µM
same,TGI,TK-10 renal,88.7 µM
same,GI50,U251 CNS,26 µM
same,TGI,U251 CNS,> 100 µM
same,GI50,UACC-257 melanoma,24.2 µM
same,TGI,UACC-257 melanoma,74.4 µM
same,GI50,UACC-62 melanoma,12.4 µM
same,TGI,UACC-62 melanoma,31.3 µM
same,GI50,UO-31 renal,14.4 µM
same,TGI,UO-31 renal,59.6 µM
